From ChEMBL document CHEMBL1123515, “Bioisosteric prototype design of biaryl imidazolyl and triazolyl competitive histamine H2-receptor antagonists” (1986)
One block for each compound: values may come before it.

Key:
[1] = tested on: Canis familiaris; assay: Maximum percent inhibition of acid output in penta gastrin-stimulated Heidenhain pouch dogs at a dose of 10 mg/kg, given intravenously (iv).; assay type: functional; conditions: Canis lupus familiaris
[2] = tested on: Canis familiaris; assay: Effective dose on intravenous administration was evaluated for the inhibition of acid output in penta gastrin stimulated Heidenhain pouch dogs; assay type: functional; conditions: Canis lupus familiaris
[3] = tested on: Canis familiaris; assay: Maximum percent inhibition of acid output in penta gastrin-stimulated Heidenhain pouch dogs at a dose of 1 mg/kg, given intravenously (iv).; assay type: functional; conditions: Canis lupus familiaris
[4] = tested on: Canis familiaris; assay: Maximum percent inhibition of acid output in penta gastrin-stimulated Heidenhain pouch dogs at a dose of 5 mg/kg, given intravenously (iv).; assay type: functional; conditions: Canis lupus familiaris
[5] = tested on: Canis familiaris; assay: Effective dose on oral administration was evaluated for the inhibition of acid output in penta gastrin stimulated Heidenhain pouch dogs; assay type: functional; conditions: Canis lupus familiaris
[6] = tested on: Canis familiaris; assay: Maximum percent inhibition of acid output in penta gastrin-stimulated Heidenhain pouch dogs at a dose of 0.5 mg/kg, given intravenously (iv).; assay type: functional; conditions: Canis lupus familiaris
[7] = target: Histamine H2 receptor (Cavia porcellus) (UniProt P47747); assay: Histamine H2 receptor antagonistic activity was evaluated in guinea pig atrium.; assay type: functional, tissue-based; conditions: Cardiac atrium
Chain of Histamine H2 receptor (Cavia porcellus) (P47747 whole entry): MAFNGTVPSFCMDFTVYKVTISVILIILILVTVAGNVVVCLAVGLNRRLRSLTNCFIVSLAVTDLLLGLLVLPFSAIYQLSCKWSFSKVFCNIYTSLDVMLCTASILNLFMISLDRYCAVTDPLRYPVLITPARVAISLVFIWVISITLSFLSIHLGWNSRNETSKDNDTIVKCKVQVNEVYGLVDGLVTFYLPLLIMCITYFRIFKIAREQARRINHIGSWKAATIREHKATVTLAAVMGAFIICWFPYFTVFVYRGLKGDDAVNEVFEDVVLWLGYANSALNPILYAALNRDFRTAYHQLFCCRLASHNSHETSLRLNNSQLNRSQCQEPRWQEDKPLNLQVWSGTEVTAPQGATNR

[8] = tested on: Canis familiaris; assay: Maximum percent inhibition of acid output in penta gastrin-stimulated Heidenhain pouch dogs at a dose of 7 mg/kg, given intravenously (iv).; assay type: functional; conditions: Canis lupus familiaris

SMILES: CCNc1cc(-c2n[nH]c(CCCC/N=C(/NC)NC#N)n2)ccn1
inhibition in vivo at 10 mg/kg [1]: 16%

SMILES: CCNc1cc(-c2n[nH]c(N)n2)ccn1
ED50 [2]: 0.87 mg/kg

SMILES: N=C(N)Nc1nc(-c2c[nH]cn2)cs1
inhibition in vivo at 1 mg/kg [3]: 95%

SMILES: N=C(N)Nc1nc(-c2n[nH]c(N)n2)cs1
inhibition in vivo at 1 mg/kg [3]: 58%

SMILES: CCNc1cc(-c2n[nH]c(C/N=C(\NC)NC#N)n2)ccn1
inhibition in vivo at 10 mg/kg [1]: 0%

SMILES: Cc1n[nH]c(-c2csc(N=C(N)N)n2)n1
inhibition in vivo at 1 mg/kg [3]: 50%

SMILES: CCNc1cc(-c2n[nH]c(CCC/N=C(/S)NC)n2)ccn1
inhibition in vivo at 1 mg/kg [3]: 20%

SMILES: CCNc1cc(-c2n[nH]c(C/N=C(/S)NC)n2)ccn1
inhibition in vivo at 10 mg/kg [1]: 48%

SMILES: CCNc1cc(-c2n[nH]c(CCCC/N=C(\S)NC)n2)ccn1
inhibition in vivo at 5 mg/kg [4]: 27%

Kb [7]: 18 nM
SMILES: Cc1ncc(-c2csc(N=C(N)N)n2)[nH]1 [ZALTIDINE]
ED50 [5]: 0.27 mg/kg
inhibition in vivo at 0.5 mg/kg [6]: 90%

Kb [7]: 690 nM
SMILES: CCNc1cc(-c2n[nH]c(CC/N=C(\S)NC)n2)ccn1
inhibition in vivo at 1 mg/kg [3]: 59%

SMILES: CCNc1cc(-c2c[nH]c(C/N=C(/S)NC)n2)ccn1
inhibition in vivo at 5 mg/kg [4]: 54%

SMILES: C/N=C(\S)NCc1cc(-c2n[nH]c(N)n2)ccn1
inhibition in vivo at 10 mg/kg [1]: 19%

Kb [7]: 1240 nM
SMILES: CCNc1cc(-c2n[nH]c(CC/N=C(/NC)NC#N)n2)ccn1
inhibition in vivo at 7 mg/kg [8]: 0%

SMILES: CCNc1cc(-c2c[nH]c(C/N=C(\NC)NC#N)n2)ccn1
inhibition in vivo at 5 mg/kg [4]: 32%

Kb [7]: 550 nM
SMILES: CCNc1cc(-c2c[nH]c(CC/N=C(\S)NC)n2)ccn1
inhibition in vivo at 5 mg/kg [4]: 47%

SMILES: CN/C(=N\CCSCc1nc[nH]c1C)NC#N [CIMETIDINE]
ED50 [5]: 1.32 mg/kg
inhibition in vivo at 10 mg/kg [1]: 1.02%

SMILES: N=C(N)Nc1nc(-c2c[nH]c(N)n2)cs1
inhibition in vivo at 1 mg/kg [3]: 96%

Kb [7]: 166 nM
SMILES: CNC(=C[N+](=O)[O-])NCCSCc1ccc(CN(C)C)o1
